From doi:10.1101/125930v1 (bioRxiv, 2017)

Test system: purified E. coli protein synthesis system (PURE)
Test: Myc-peptide translation assay
Assay type: biochemical
Settings: MALDI-TOF, assuming similar ionization properties

| SMILES | consecutive incorporations (in the absence of EF-P) | consecutive incorporations (with 8 μM EF-P) |
| --- | --- | --- |
| N[C@@H](Cc1ccc(O)cc1)C(=O)O [^LTyr, L-tyrosine] | up to 3 | up to 7 |
| N[C@H](Cc1ccc(O)cc1)C(=O)O [^DTyr, D-tyrosine] | ≤ 2 | ≤ 5 |
